Ten compounds from patent publication US20250195513A1, “DEGRADATION OF IRAK4 BY CONJUGATION OF IRAK4 INHIBITORS WITH E3 LIGASE LIGAND AND METHODS OF USE” (BeiGene, Ltd., priority 2022, published 2025) can be followed below.

The structures appear in SMILES notation.

Experiment [1] addresses T1, IRAK4 (Homo sapiens, UniProt Q9NWZ3).
T1 construct: endogenous in cells; host or cells: Karpas299
T1 sequence (Q9NWZ3 1-460): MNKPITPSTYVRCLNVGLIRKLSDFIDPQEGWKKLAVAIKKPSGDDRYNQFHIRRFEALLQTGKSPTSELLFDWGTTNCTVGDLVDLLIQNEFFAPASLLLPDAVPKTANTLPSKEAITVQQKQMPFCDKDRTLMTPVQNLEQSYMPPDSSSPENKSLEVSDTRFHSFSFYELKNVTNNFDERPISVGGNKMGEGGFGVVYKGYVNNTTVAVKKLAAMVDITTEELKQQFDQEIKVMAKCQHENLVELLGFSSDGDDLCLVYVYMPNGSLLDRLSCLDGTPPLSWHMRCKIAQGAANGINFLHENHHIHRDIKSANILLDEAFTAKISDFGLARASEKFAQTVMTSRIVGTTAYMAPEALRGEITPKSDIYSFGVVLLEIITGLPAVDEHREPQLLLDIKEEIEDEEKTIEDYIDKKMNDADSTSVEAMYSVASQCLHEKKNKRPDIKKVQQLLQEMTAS
As to the kind of experiment: IRAK4 Degradation Assay (Karpas299, HTRF/TR-FRET). Particulars: Karpas-299 cells; for Dmax: maximum percentage of degradation. Format: cell-based. An outline of the steps: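 Karpas299 cells at 0.2 million per well were exposed to serially diluted compounds for 24 h or 5 h, then lysed. IRAK4 remaining in lysates was quantified by HTRF (665/620 nm) after overnight antibody incubation at room temperature. Percent degradation was fitted to a four-parameter curve to give IC50 (DC50).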
On the technique in general: TR-FRET usually uses a lanthanide donor and a delayed reading to cut background.

In experiment [2] the target is T1, IRAK4. Nature of the experiment: IRAK4 Degradation Assay with Human Serum (Karpas299, HTRF/TR-FRET). Format: cell-based. Particulars: Karpas-299 in human serum, 24 hrs treatment; for DC50: read-out: IRAK4 degradtion with human serum assay DC50; for Dmax: read-out: IRAK4 degradtion with human serum assay Dmax (%). Here is the method:
IRAK4 degradation was measured using a TR-FRET-based method (Degorce, François, et al. Current chemical genomics. 2009, 3: 22). Karpas299 resuspended in Human serum AB (GEMINI, 100-512) were seeded into 96-well plates at the density of 0.2 million cells per well and then treated with a series dilution of compounds. After 24 hrs treatment, cells were pelleted via centrifugation and washed with PBS, add 40 μL lysis buffer (Cisbio) to each well after removal of the supernatant. Plates were then incubated at room temperature with shaking for 30 minutes. A total of 16 μL of cell lysates from each well of a 96-well plate was transferred to a 384-well white assay plate. IRAK4 level was quantitated using the HTRF kit as described by the manufacturer manual (Cisbio). FRET signals were measured using a PHERAstar FSX reader (BMG Labtech).
After treatment, add HTRF lysis buffer to each well; seal the plate and incubate 1 hour at room temperature on a plate shaker; Once the cells are lysed, 16 μL of cell lysate are transferred to a PE 384-well HTRF detection plate; 4 μL of pre-mixed HTRF antibodies are added to each well; Cover the plate with a plate sealer, spin 1000 rpm for 1 min, Incubate overnight at room temperature; Read on BMG PheraStar with HTRF protocol (337 nm-665 nm-620 nm).
The inhibition (degradation) percentage of the compound was calculated by the following equation: […]
The IC50 (DC50) value of a compound can be obtained by fitting the following equation
Wherein, X and Y are known values, and IC50, Hillslope, Top and Bottom are the parameters obtained by fitting with software. Y is the inhibition percentage (calculated from the equation), X is the concentration of the compound; IC50 is the concentration of the compound when the […] is reached. The smaller the IC50 value is, the stronger the inhibitory ability of the compound is. Vice versa, the higher the IC50 value is, the weaker the ability the inhibitory ability of the compound is; Hillslope represents the slope of the fitted curve, generally around 1 *; Bottom represents the minimum value of the curve obtained by data fitting, which is generally 0%±20%; Top represents the maximum value of the curve obtained by data fitting, which is generally 100%±20%. The experimental data were fitted by calculating and analyzing with Dotmatics data analysis software.

The mark [3] stands for this setting: 24 h treatment, read-out: IRAK4 in Karpas-299 (24 h) Dmax (%).
[4] abbreviates: 24 h treatment, read-out: IRAK4 in Karpas-299 (24 h) DC50.

The term Dmax denotes the greatest extent of degradation seen. A word on the DC50: it is the midpoint of the concentration-degradation curve. Consider `C[C@@H]1CN([C@H]2C[C@H](c3cc(F)c([C@H]4CCC(=O)NC4=O)c(F)c3)C2)CCN1[C@H]1CC[C@H](n2cc3cc(NC(=O)c4ccc5cc(C#N)cnn45)c(C(C)(C)O)cc3n2)CC1` [Example 366, 3-cyano-N-(2-((1R,4r)-4-((R)-4-((1R,3R)-3-(4-((R)-2,6-dioxopiperidin-3-yl)-3,5-difluorophenyl)cyclobutyl)-2-methylpiperazin-1-yl)cyclohexyl)-6-(2-hydroxypropan-2-yl)-2H-indazol-5-yl)pyrrolo[1,2-b]pyridazine-7-carboxamide], for which the Dmax at IRAK4 [1] (setting [3]) was 98%; on IRAK4 [2], 97%. Also, the DC50 on IRAK4 [1] (setting [4]) is 1.4 nM; on IRAK4 [2], 14 nM.

On to `CC(C)(O)c1cc2nn([C@H]3CC[C@H](N4CCN(CCc5cc(F)c([C@H]6CCC(=O)NC6=O)c(F)c5)C[C@@H]4CC#N)CC3)cc2cc1NC(=O)c1ccc2cc(C#N)cnn12` [Example 389, 3-cyano-N-(2-((1S,4r)-4-((S)-2-(cyanomethyl)-4-(4-((R)-2,6-dioxopiperidin-3-yl)-3,5-difluorophenethyl)piperazin-1-yl)cyclohexyl)-6-(2-hydroxypropan-2-yl)-2H-indazol-5-yl)pyrrolo[1,2-b]pyridazine-7-carboxamide], for which the Dmax amounted to 94% at IRAK4 [1] (setting [3]) and 100% at IRAK4 [2]. For the same compound, the values for the DC50 on IRAK4 [1] (setting [4]) and at IRAK4 [2] were 1 nM and 13 nM, respectively.

In the case of `CC(C)(O)c1cc2nn([C@H]3CC[C@H](N4CCN(CC5CN(c6cc(F)c(N7CCC(=O)NC7=O)c(F)c6)C5)CC4)CC3)cc2cc1NC(=O)c1ccc2cc(C#N)cnn12` [Example 108, 3-cyano-N-(2-((1r,4r)-4-(4-((1-(4-(2,4-dioxotetrahydropyrimidin-1(2H)-yl)-3,5-difluorophenyl)azetidin-3-yl)methyl)piperazin-1-yl)cyclohexyl)-6-(2-hydroxypropan-2-yl)-2H-indazol-5-yl)pyrrolo[1,2-b]pyridazine-7-carboxamide], the values for the Dmax at IRAK4 [1] (setting [3]) and on IRAK4 [2] were 97% and 94%, respectively. Besides, the values for the DC50 at IRAK4 [1] (setting [4]) and on IRAK4 [2] were 3.9 nM and 28 nM, respectively.

For the compound `CC(C)(O)c1cc2nn(C34CC(N5CCN(CCC6CCN(c7cc(F)c([C@H]8CCC(=O)NC8=O)c(F)c7)CC6)CC5)(C3)C4)cc2cc1NC(=O)c1ccc2cc(C#N)cnn12` [Example 349, (R)-3-cyano-N-(2-(3-(4-(2-(1-(4-(2,6-dioxopiperidin-3-yl)-3,5-difluorophenyl)piperidin-4-yl)ethyl)piperazin-1-yl)bicyclo[1.1.1]pentan-1-yl)-6-(2-hydroxypropan-2-yl)-2H-indazol-5-yl)pyrrolo[1,2-b]pyridazine-7-carboxamide], the Dmax on IRAK4 [1] (5 h treatment, read-out: IRAK4 in Karpas-299 (5 h) Dmax (%)) is 94%; at IRAK4 [1] (setting [3]), 97%; at IRAK4 [2], 98%. The DC50 on IRAK4 [1] (5 h treatment, read-out: IRAK4 in Karpas-299 (5 h) DC50) came to 3.9 nM; at IRAK4 [1] (setting [4]), 2.4 nM; at IRAK4 [2] it was 7.7 nM.

For the compound `CC(C)(O)c1cc2nn(C3CCN([C@@H]4CCN(C5CN(c6cc(F)c([C@H]7CCC(=O)NC7=O)c(F)c6)C5)CC4(F)F)CC3)cc2cc1NC(=O)c1ccc2cc(C#N)cnn12` [Example 342, 3-cyano-N-(2-((R)-1′-(1-(4-((R)-2,6-dioxopiperidin-3-yl)-3,5-difluorophenyl)azetidin-3-yl)-3′,3′-difluoro-[1,4′-bipiperidin]-4-yl)-6-(2-hydroxypropan-2-yl)-2H-indazol-5-yl)pyrrolo[1,2-b]pyridazine-7-carboxamide], the Dmax at IRAK4 [1] (setting [3]) amounted to 102%; on IRAK4 [2] it was 98%. Besides, the DC50 at IRAK4 [1] (setting [4]) worked out at 1.5 nM; at IRAK4 [2], 14 nM.

Take `COc1cc2nn([C@H]3CC[C@H](N4CCN(C(=O)C5CN(c6cc(F)c([C@H]7CCC(=O)NC7=O)c(F)c6)C5)CC4)CC3)cc2cc1C(=O)Nc1cnc2cccnn12` [Example 343, 2-((1r,4r)-4-(4-(1-(4-((R)-2,6-dioxopiperidin-3-yl)-3,5-difluorophenyl)azetidine-3-carbonyl)piperazin-1-yl)cyclohexyl)-N-(imidazo[1,2-b]pyridazin-3-yl)-6-methoxy-2H-indazole-5-carboxamide]: the Dmax on IRAK4 [1] (setting [3]) worked out at 97%; on IRAK4 [2] it was 102%. For the same compound, the figures for the DC50 at IRAK4 [1] (setting [4]) and on IRAK4 [2] were 0.1 nM and 2.3 nM, respectively.

As to `CC(C)(O)c1cc2nn([C@H]3CC[C@H](CN4CCN(C5CCN(c6ccc7c(c6)C(=O)N(C6CCC(=O)NC6=O)C7=O)CC5)CC4)CC3)cc2cc1NC(=O)c1ccc2cc(C#N)cnn12` (stereo partly drawn) [Example 436, 3-cyano-N-(2-((1r,4r)-4-((4-(1-(2-(2,6-dioxopiperidin-3-yl)-1,3-dioxoisoindolin-5-yl)piperidin-4-yl)piperazin-1-yl)methyl)cyclohexyl)-6-(2-hydroxypropan-2-yl)-2H-indazol-5-yl)pyrrolo[1,2-b]pyridazine-7-carboxamide], the results for the Dmax at IRAK4 [1] (setting [3]) and on IRAK4 [2] were 96% and 85%, respectively. Also, the DC50 is 10.8 nM at IRAK4 [1] (setting [4]) and 14 nM on IRAK4 [2].

In the case of `CC(C)(O)c1cc2nn([C@H]3CC[C@H](CN4CCN(C5CN(c6cc(F)c([C@H]7CCC(=O)NC7=O)c(F)c6)C5)CC4)CC3)cc2cc1NC(=O)c1ccc2cc(C#N)cnn12` [Example 421, 3-cyano-N-(2-((1r,4r)-4-((4-(1-(4-((R)-2,6-dioxopiperidin-3-yl)-3,5-difluorophenyl)azetidin-3-yl)piperazin-1-yl)methyl)cyclohexyl)-6-(2-hydroxypropan-2-yl)-2H-indazol-5-yl)pyrrolo[1,2-b]pyridazine-7-carboxamide], the results for the Dmax at IRAK4 [1] (setting [3]) and at IRAK4 [2] were 95% and 97%, respectively. Moreover, the DC50 worked out at 0.8 nM at IRAK4 [1] (setting [4]) and 15 nM on IRAK4 [2].

For `CC(C)(O)c1cc2nn([C@H]3CC[C@H](N4CCN(C(=O)C5CN(c6cc(F)c([C@H]7CCC(=O)NC7=O)c(F)c6)C5)CC4=O)CC3)cc2cc1NC(=O)c1ccc2cc(C#N)cnn12` [Example 199, 3-cyano-N-(2-((1r,4r)-4-(4-(1-(4-((R)-2,6-dioxopiperidin-3-yl)-3,5-difluorophenyl)azetidine-3-carbonyl)-2-oxopiperazin-1-yl)cyclohexyl)-6-(2-hydroxypropan-2-yl)-2H-indazol-5-yl)pyrrolo[1,2-b]pyridazine-7-carboxamide], the Dmax on IRAK4 [1] (setting [3]) stood at 99%; on IRAK4 [2], 95%. Besides, the results for the DC50 on IRAK4 [1] (setting [4]) and on IRAK4 [2] were 0.4 nM and 22 nM, respectively.

As for `CC(C)(O)c1cc2nn([C@H]3CC[C@H](N4CCN([C@@H]5CCN(c6cc(F)c(C7CCC(=O)NC7=O)c(F)c6)C5)CC4)CC3)cc2cc1NC(=O)c1ccc2cc(C#N)cnn12` (stereo partly drawn) [Example 396, 3-cyano-N-(2-((1R,4r)-4-(4-((3R)-1-(4-(2,6-dioxopiperidin-3-yl)-3,5-difluorophenyl)pyrrolidin-3-yl)piperazin-1-yl)cyclohexyl)-6-(2-hydroxypropan-2-yl)-2H-indazol-5-yl)pyrrolo[1,2-b]pyridazine-7-carboxamide], the Dmax on IRAK4 [1] (setting [3]) was 98%; at IRAK4 [2], 95%. Besides, the DC50 was 0.8 nM at IRAK4 [1] (setting [4]) and 34 nM at IRAK4 [2].
